Data on seven compounds can be found in patent US12077503B2, “Substituted cyclic amides and their use as herbicides” (FMC CORPORATION, priority 2015, dated 2024).

Read-outs that look alike come from different tables or passages of the source.

Holding throughout (test): Test A preemergence
Holding throughout (assay type): in vivo

The subject of one test is Kochia (Kochia scoparia). The following applies: Bassia scoparia, pre-emergence, 240 h; for pest or weed control at 125 g/ha: 125 g ai/ha; for pest or weed control at 125 g/ha / pest or weed control at 500 g/ha: preemergence; for pest or weed control at 500 g/ha: 500 g ai/ha. Summed up:
(§1)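 Preemergence soil spray on seeded pots or post-emergence spray on 1–2 leaf plants, in loam–sand blend. Greenhouse ~10 d. Visual rating 0–100 against untreated plants.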

The test system of test [1] is barnyardgrass (Echinochloa crus-galli). Particulars: Echinochloa crus-galli, pre-emergence, 240 h; for pest or weed control at 125 g/ha: 125 g ai/ha; for pest or weed control at 125 g/ha / pest or weed control at 500 g/ha: preemergence; for pest or weed control at 500 g/ha: 500 g ai/ha. The method, boiled down:
as §1

Test [2] relates to giant foxtail (Setaria faberii). The following applies: Setaria faberi, pre-emergence, 240 h; for pest or weed control at 125 g/ha: 125 g ai/ha; for pest or weed control at 125 g/ha / pest or weed control at 500 g/ha: preemergence; for pest or weed control at 500 g/ha: 500 g ai/ha. The method, boiled down: as §1
Test [3] has as its system pigweed (Amaranthus retroflexus). The following applies: Amaranthus retroflexus, pre-emergence, 240 h; for pest or weed control at 125 g/ha: 125 g ai/ha; for pest or weed control at 125 g/ha / pest or weed control at 500 g/ha: preemergence; for pest or weed control at 500 g/ha: 500 g ai/ha.
Test [4] relates to ragweed (common ragweed, Ambrosia elatior). The following applies: Ambrosia artemisiifolia, pre-emergence, 240 h; for pest or weed control at 125 g/ha: 125 g ai/ha; for pest or weed control at 125 g/ha / pest or weed control at 500 g/ha: preemergence; for pest or weed control at 500 g/ha: 500 g ai/ha. Summed up: as §1
For test [5], the system named is ryegrass, Italian (Italian ryegrass, Lolium multiflorum). The following applies: Lolium multiflorum, pre-emergence, 240 h; for pest or weed control at 125 g/ha: 125 g ai/ha; for pest or weed control at 125 g/ha / pest or weed control at 500 g/ha: preemergence; for pest or weed control at 500 g/ha: 500 g ai/ha. The method, boiled down: as §1
Setting [6] is: visual injury rating, 0 to 100 scale where 0 is no effect and 100 is complete control, approximately 10 d, read-out: Kochia plant response rating.
Setting [7] is: 0 to 100 scale where 0 is no effect and 100 is complete control, read-out: Kochia plant response rating.
Where [8] appears, read: visual injury rating, 0 to 100 scale where 0 is no effect and 100 is complete control, approximately 10 d, read-out: Barnyardgrass plant response rating.
Where [9] appears, read: 0 to 100 scale where 0 is no effect and 100 is complete control, read-out: Barnyardgrass plant response rating.
Setting [10] is: visual injury rating, 0 to 100 scale where 0 is no effect and 100 is complete control, approximately 10 d, read-out: Foxtail, Giant plant response rating.
Where [11] appears, read: 0 to 100 scale where 0 is no effect and 100 is complete control, read-out: Foxtail, Giant plant response rating.
The mark [12] stands for this setting: visual injury rating, 0 to 100 scale where 0 is no effect and 100 is complete control, approximately 10 d, read-out: Pigweed plant response rating.
The mark [13] stands for this setting: 0 to 100 scale where 0 is no effect and 100 is complete control, read-out: Pigweed plant response rating.
Setting [14] is: visual injury rating, 0 to 100 scale where 0 is no effect and 100 is complete control, approximately 10 d, read-out: Ragweed plant response rating.
The mark [15] stands for this setting: 0 to 100 scale where 0 is no effect and 100 is complete control, read-out: Ragweed plant response rating.
The mark [16] stands for this setting: visual injury rating, 0 to 100 scale where 0 is no effect and 100 is complete control, approximately 10 d, read-out: Ryegrass, Italian plant response rating.
The mark [17] stands for this setting: 0 to 100 scale where 0 is no effect and 100 is complete control, read-out: Ryegrass, Italian plant response rating.
Where [18] appears, read: visual rating after approx. 10 d, 0 to 100 scale where 0 is no effect and 100 is complete control, read-out: Plant response rating, Kochia.
[19] abbreviates: visual rating after approx. 10 d, 0 to 100 scale where 0 is no effect and 100 is complete control, read-out: Plant response rating, Barnyardgrass.
Setting [20] is: visual rating after approx. 10 d, 0 to 100 scale where 0 is no effect and 100 is complete control, read-out: Plant response rating, Foxtail, Giant.
[21] abbreviates: visual rating after approx. 10 d, 0 to 100 scale where 0 is no effect and 100 is complete control, read-out: Plant response rating, Pigweed.
Where [22] appears, read: visual rating after approx. 10 d, 0 to 100 scale where 0 is no effect and 100 is complete control, read-out: Plant response rating, Ragweed.
The mark [23] stands for this setting: visual rating after approx. 10 d, 0 to 100 scale where 0 is no effect and 100 is complete control, read-out: Plant response rating, Ryegrass, Italian.
Where [24] appears, read: 0 to 100 scale, 0 = no effect, 100 = complete control, read-out: Plant response rating, Kochia.
Setting [25] is: 0 to 100 scale, 0 = no effect, 100 = complete control, read-out: Plant response rating, Barnyardgrass.
The mark [26] stands for this setting: 0 to 100 scale, 0 = no effect, 100 = complete control, read-out: Plant response rating, Foxtail, Giant.
The mark [27] stands for this setting: 0 to 100 scale, 0 = no effect, 100 = complete control, read-out: Plant response rating, Pigweed.
Where [28] appears, read: 0 to 100 scale, 0 = no effect, 100 = complete control, read-out: Plant response rating, Ragweed.
Where [29] appears, read: 0 to 100 scale, 0 = no effect, 100 = complete control, read-out: Plant response rating, Ryegrass, Italian.

Take `Cc1nc([C@H]2CN(C)C(=O)[C@@H]2C(=O)Nc2cccc(F)c2F)cs1` [Compound 1281]: the pest or weed control at 125 g/ha in the test on Kochia (Kochia scoparia) (setting [6]) was found to be 0%; in test [1] (setting [8]), 40%; in test [2] (setting [10]), 40%; in test [3] (setting [12]), 30%; in test [4] (setting [14]), 0%; in test [5] (setting [16]) it was 0%. Moreover, the pest or weed control at 500 g/ha in the test on Kochia (Kochia scoparia) (setting [7]) stood at 60%; in test [1] (setting [9]) it was 90%; in test [2] (setting [11]), 90%; in test [3] (setting [13]), 40%; in test [4] (setting [15]), 60%; in test [5] (setting [17]) it was 20%.

As to `Cc1cc(F)cc([C@H]2CN(C)C(=O)[C@@H]2C(=O)Nc2cccc(F)c2C)c1` [Compound 802], the pest or weed control at 125 g/ha turned out to be 50% in the test on Kochia (Kochia scoparia) (setting [18]); 90% in test [1] (setting [19]); 90% in test [2] (setting [20]); 50% in test [3] (setting [21]); 60% in test [4] (setting [22]); 40% in test [5] (setting [23]). Besides, the pest or weed control at 31 g/ha in the test on Kochia (Kochia scoparia) (Preemergence, 31 g ai/ha, 0 to 100 scale (0 no effect, 100 complete control), read-out: Plant response rating, Kochia) stood at 0%; in test [1] (Preemergence, 31 g ai/ha, 0 to 100 scale (0 no effect, 100 complete control), read-out: Plant response rating, Barnyardgrass), 80%; in test [2] (Preemergence, 31 g ai/ha, 0 to 100 scale (0 no effect, 100 complete control), read-out: Plant response rating, Foxtail, Giant) it was 90%; in test [3] (Preemergence, 31 g ai/ha, 0 to 100 scale (0 no effect, 100 complete control), read-out: Plant response rating, Pigweed), 40%; in test [4] (Preemergence, 31 g ai/ha, 0 to 100 scale (0 no effect, 100 complete control), read-out: Plant response rating, Ragweed), 0%; in test [5] (Preemergence, 31 g ai/ha, 0 to 100 scale (0 no effect, 100 complete control), read-out: Plant response rating, Ryegrass, Italian), 0%.

In the case of `O=C1NC[C@H](c2cccc(C(F)(F)F)c2)C1C(=O)Nc1c(F)cccc1CO` (stereo partly drawn) [Compound 1240], the pest or weed control at 125 g/ha (with Kochia (Kochia scoparia) (setting [6]); in test [1] (setting [8]); in test [2] (setting [10]); in test [3] (setting [12]); in test [4] (setting [14]); in test [5] (setting [16])) was 0% in each case. Also, the pest or weed control at 500 g/ha (in the test on Kochia (Kochia scoparia) (setting [7]); in test [1] (setting [9]); in test [2] (setting [11]); in test [3] (setting [13]); in test [4] (setting [15]); in test [5] (setting [17])) was 0% throughout.

Take `CN1C[C@H](c2cccc(C(F)(F)F)c2)[C@@H](C(=O)Nc2ccccc2C2CC2)C1=O` [Compound 749]: the pest or weed control at 125 g/ha in the test with Kochia (Kochia scoparia) (setting [18]) worked out at 0%; in test [1] (setting [19]), 0%; in test [2] (setting [20]) it was 50%; in test [3] (setting [21]) it was 0%; in test [4] (setting [22]), 0%; in test [5] (setting [23]) it was 0%. Further, the pest or weed control at 500 g/ha worked out at 20% in the test with Kochia (Kochia scoparia) (setting [24]); 20% in test [1] (setting [25]); 90% in test [2] (setting [26]); 0% in test [3] (setting [27]); 0% in test [4] (setting [28]); 20% in test [5] (setting [29]).

In the case of `CN1C[C@H](c2ccc(C(F)F)cc2)[C@@H](C(=O)Nc2ccc(F)c(F)c2F)C1=O` [Compound 1260], the pest or weed control at 125 g/ha came out at 80% in the test on Kochia (Kochia scoparia) (setting [6]); 90% in test [1] (setting [8]); 90% in test [2] (setting [10]); 90% in test [3] (setting [12]); 80% in test [4] (setting [14]); 50% in test [5] (setting [16]). In addition, the pest or weed control at 500 g/ha in the test with Kochia (Kochia scoparia) (setting [7]) was found to be 90%; in test [1] (setting [9]), 100%; in test [2] (setting [11]) it was 90%; in test [3] (setting [13]), 90%; in test [4] (setting [15]), 90%; in test [5] (setting [17]), 60%.

For `CCc1cc(CC)cc([C@H]2CN(C)C(=O)[C@@H]2C(=O)Nc2cccc(F)c2F)c1` [Compound 736], the pest or weed control at 125 g/ha in the test on Kochia (Kochia scoparia) (setting [18]) was determined as 20%; in test [1] (setting [19]) it was 90%; in test [2] (setting [20]) it was 90%; in test [3] (setting [21]), 0%; in test [4] (setting [22]), 0%; in test [5] (setting [23]) it was 90%. The pest or weed control at 500 g/ha was 70% in the test with Kochia (Kochia scoparia) (setting [24]); 90% in test [1] (setting [25]); 90% in test [2] (setting [26]); 20% in test [3] (setting [27]); 20% in test [4] (setting [28]); 90% in test [5] (setting [29]).

On to `CN1C[C@H](c2ccc(F)c(C#N)c2)[C@@H](C(=O)Nc2cccc(F)c2F)C1=O` [Compound 1255], for which the pest or weed control at 125 g/ha in the test on Kochia (Kochia scoparia) (setting [6]) was found to be 60%; in test [1] (setting [8]) it was 100%; in test [2] (setting [10]), 100%; in test [3] (setting [12]), 60%; in test [4] (setting [14]), 20%; in test [5] (setting [16]), 20%. The pest or weed control at 500 g/ha was determined as 80% in the test on Kochia (Kochia scoparia) (setting [7]); 100% in test [1] (setting [9]); 100% in test [2] (setting [11]); 90% in test [3] (setting [13]); 70% in test [4] (setting [15]); 40% in test [5] (setting [17]).
